Measured values published in ChEMBL document CHEMBL1156413, “New acylated triterpene saponins from Silene fortunei that modulate lymphocyte proliferation” (2002).
The source made the active and inactive calls. No cut-off for these calls is given here.

What was measured:
Jurkat [1] = test: Induction of apoptosis in human Jurkat cells assessed as enhancement of early apoptotic cells population at 10 uM after 18 hrs using annexin V-FITC staining by flow cytometry relative to control; format: functional
Jurkat [2] = test: Cytotoxicity against human Jurkat cells at 5 uM; format: functional, cell-based
Jurkat [3] = test: Immunomodulatory activity in human Jurkat cells assessed as stimulation index at 0.001 to 5 uM after 36 hrs by [3H]thymidine incorporation assay; format: functional
Jurkat [4] = test: Cytotoxicity against human Jurkat cells up to 10 uM; format: functional, cell-based
Jurkat [5] = test: Cytotoxicity against human Jurkat cells at 5 to 10 uM; format: functional, cell-based
Jurkat [6] = test: Induction of apoptosis in human Jurkat cells assessed as early apoptotic cells at 10 uM after 18 hrs using annexin V-FITC staining by flow cytometry; format: functional, cell-based
Jurkat [7] = test: Cytotoxicity against human Jurkat cells at 1 uM; format: functional, cell-based
Jurkat [8] = test: Immunomodulatory activity in human Jurkat cells after 36 hrs by [3H]thymidine incorporation assay; format: functional, cell-based

## COc1ccc(/C=C/C(=O)O[C@@H]2[C@H](O)[C@@H](O[C@@H]3O[C@@H](C)[C@H](O)[C@@H](O)[C@H]3O)[C@H](OC(=O)[C@]34CCC(C)(C)C[C@H]3C3=CC[C@@H]5[C@@]6(C)CC[C@H](O[C@@H]7O[C@H](C(=O)O)[C@@H](O)[C@H](O)[C@H]7O[C@@H]7O[C@H](CO)[C@H](O)[C@H](O)[C@H]7O)[C@@](C)(C=O)[C@@H]6CC[C@@]5(C)[C@]3(C)C[C@H]4O)O[C@@H]2C)cc1 (mixture of isomers) [JENISSEENSOSIDE C/D]
Jurkat [1]
  fold change (FC): 9
Jurkat [2]
  Activity: Active
Jurkat [3]
  Activity: 1.36

## CC(=O)OC[C@H]1O[C@@H](O[C@H]2[C@@H](OC(C)=O)[C@@H](C)O[C@@H](OC(=O)[C@]34CCC(C)(C)C[C@H]3C3=CC[C@@H]5[C@@]6(C)CC[C@H](O[C@@H]7O[C@H](C(=O)O)[C@@H](O)[C@H](O)[C@H]7O[C@@H]7O[C@H](CO)[C@H](O)[C@H](O)[C@H]7O)[C@@](C)(C=O)[C@@H]6CC[C@@]5(C)[C@]3(C)C[C@H]4O)[C@@H]2O[C@@H]2O[C@@H](C)[C@H](O[C@@H]3OC[C@@H](O)[C@H](O[C@@H]4OC[C@H](O)[C@H](O)[C@H]4O[C@@H]4OC[C@H](O)[C@H](O)[C@H]4O)[C@H]3O)[C@@H](O)[C@H]2O)[C@H](O)[C@@H](O)[C@@H]1O
Jurkat [3]
  Activity: 1.56
Jurkat [4]
  Activity: inactive

## C[C@@H]1O[C@@H](O[C@H]2[C@H](OC(=O)[C@]34CCC(C)(C)C[C@H]3C3=CC[C@@H]5[C@@]6(C)CC[C@H](O[C@@H]7O[C@H](C(=O)O)[C@@H](O)[C@H](O)[C@H]7O[C@@H]7O[C@H](CO)[C@H](O)[C@H](O)[C@H]7O)[C@@](C)(C=O)[C@@H]6CC[C@@]5(C)[C@]3(C)C[C@H]4O)O[C@H](C)[C@H](O)[C@@H]2O)[C@H](O)[C@H](O)[C@H]1O
Jurkat [5]
  Activity: inactive
Jurkat [6]
  Activity: inactive

## COc1ccc(/C=C/C(=O)O[C@@H]2[C@H](OC(C)=O)[C@@H](O[C@@H]3O[C@@H](C)[C@H](O)[C@@H](O)[C@H]3O)[C@H](OC(=O)[C@]34CCC(C)(C)C[C@H]3C3=CC[C@@H]5[C@@]6(C)CC[C@H](O[C@@H]7O[C@H](C(=O)O)[C@@H](O)[C@H](O)[C@H]7O[C@@H]7O[C@H](CO)[C@H](O)[C@H](O)[C@H]7O)[C@@](C)(C=O)[C@@H]6CC[C@@]5(C)[C@]3(C)C[C@H]4O)O[C@@H]2C)cc1
Jurkat [7]
  Activity: Active
Jurkat [1]
  fold change (FC): 2.8
Jurkat [8]
  Activity: Dose-dependent effect
Jurkat [3]
  Activity: 1.44
